Source: patent publication US20140045824A1, “METHOD FOR PRODUCING COMPLEX CRYSTAL AND METHOD FOR SCREENING COMPLEX CRYSTAL” (priority 2011, published 2014)

Assays:
Assay type in all cases: physicochemical
[1] = Cocrystal screening by slurry method (Comparative Examples 1-1 to 1-6), powder X-ray diffraction; parameters: key to Cocrystal formation, Comparative Example 1* / Cocrystal formation, Comparative Example 1-1 / Cocrystal formation, Comparative Example 1-2 / Cocrystal formation, Comparative Example 1-3 / Cocrystal formation, Comparative Example 1-4 / Cocrystal formation, Comparative Example 1-5 / Cocrystal formation, Comparative Example 1-6: A cocrystal was completely formed.; B: A mixture of a cocrystal and the host compound or guest compound was formed.; C: A cocrystal was not formed (a mixture of the host compound and the guest compound was formed); details: host theophylline; for Cocrystal formation, Comparative Example 1-6: slurry in acetone; for Cocrystal formation, Comparative Example 1-6 / Cocrystal formation, Comparative Example 1-2 / Cocrystal formation, Comparative Example 1-5 / Cocrystal formation, Comparative Example 1-3 / Cocrystal formation, Comparative Example 1-4 / Cocrystal formation, Comparative Example 1-1: room temperature 7 days; for Cocrystal formation, Comparative Example 1-2: slurry in ethanol; for Cocrystal formation, Comparative Example 1-5: slurry in ethyl acetate; for Cocrystal formation, Comparative Example 1-3: slurry in tetrahydrofuran; for Cocrystal formation, Comparative Example 1-4: slurry in toluene; for Cocrystal formation, Comparative Example 1*: slurry summary: A if a cocrystal was formed in any one of Comparative Examples 1-1 to 1-6
Description: (§1) 3 mg (0.0167 mmoles) of theophylline and a guest compound shown in Table 1 in an equimolar amount (0.0167 mmoles) to theophylline were weighed and put into a glass container, to which was then added 60 μL of water. These were shaken at room temperature for 7 days, and the obtained residues were subjected to powder X-ray diffraction measurement. 3 mg (0.0167 mmoles) of theophylline and a guest compound shown in Table I in an equimolar amount (0.0167 mmoles) to theophylline were weighed and put into a glass container, to which was then added 60 μL of ethanol. These were shaken at room temperature for 7 days, and the obtained residues were subjected to powder X-ray diffraction measurement. 3 mg (0.0167 mmoles) of theophylline and a guest compound shown in Table 1 in an equimolar amount (0.0167 mmoles) to theophylline were weighed and put into a glass container, to which was then added 60 μL of tetrahydrofuran. This was shaken at room temperature for 7 days, and the obtained residues were subjected to powder X-ray diffraction measurement. 3 mg (0.0167 mmoles) of theophylline and a guest compound shown in Table 1 in an equimolar amount (0.0167 mmoles) to theophylline were weighed and put into a glass container, to which was then added 60 μL of toluene. These were shaken at room temperature for 7 days, and the obtained residues were subjected to powder X-ray diffraction measurement. 3 mg (0.0167 mmoles) of theophylline and a guest compound shown in Table 1 in an equimolar amount (0.0167 mmoles) to theophylline were weighed and put into a glass container, to which was then added 60 μL of ethyl acetate. These were shaken at room temperature for 7 days, and the obtained residues were subjected to powder X-ray diffraction measurement. 3 mg (0.0167 mmoles) of theophylline and a guest compound shown in Table 1 in an equimolar amount (0.0167 mmoles) to theophylline were weighed and put into a glass container, to which was then added 60 μL of acetone. These were shaken at room temperature for 7 days, and the obtained residues were subjected to powder X-ray diffraction measurement.

[2] = Cocrystal screening by heat melting 1-menthol (Example 1), powder X-ray diffraction and thermal analysis; parameters: key to Cocrystal formation, Example 1: A cocrystal was completely formed.; B: A mixture of a cocrystal and the host compound or guest compound was formed.; C: A cocrystal was not formed (a mixture of the host compound and the guest compound was formed); details: host theophylline; for Cocrystal formation, Example 1: equimolar guest, 1-menthol added, 4 hours at 80° C.
Description: Theophylline and a guest compound shown in Table 1 in an equimolar amount to theophylline were weighed and mixed using an agate mortar. […] Thereafter, the obtained mixed powder of theophylline, the guest compound, and 1-menthol was heated for 4 hours in an oven at 80° C., and the obtained solid was subjected to powder X-ray diffraction measurement and thermal analysis.

[3] = Cocrystal screening by mixing and grinding method (Comparative Example 5); parameters: key: A cocrystal was completely formed.; B: A mixture of a cocrystal and the host compound or guest compound was formed.; C: A cocrystal was not formed (a mixture of the host compound and the guest compound was formed); details: host carbamazepine, equimolar guest, mixed/ground in agate mortar
Source text: (§2) Carbamazepine and a guest compound shown in Table 4 in an equimolar amount to carbamazepine were weighed and mixed using an agate mortar. At that time, particles having a large size to an extent that they could be distinguished through visual inspection were grinded on the agate mortar. The obtained solids were subjected to powder X-ray diffraction measurement and thermal analysis.

[4] = Cocrystal screening by slurry method (Comparative Examples 4-1 to 4-6), powder X-ray diffraction; parameters: key: A cocrystal was completely formed.; B: A mixture of a cocrystal and the host compound or guest compound was formed.; C: A cocrystal was not formed (a mixture of the host compound and the guest compound was formed); details: host carbamazepine; for Cocrystal formation, Comparative Example 4-6: slurry in acetone; for Cocrystal formation, Comparative Example 4-6 / Cocrystal formation, Comparative Example 4-2 / Cocrystal formation, Comparative Example 4-4 / Cocrystal formation, Comparative Example 4-1 / Cocrystal formation, Comparative Example 4-5 / Cocrystal formation, Comparative Example 4-3: room temperature 7 days; for Cocrystal formation, Comparative Example 4-2: slurry in ethanol; for Cocrystal formation, Comparative Example 4-4: slurry in toluene; for Cocrystal formation, Comparative Example 4-1: slurry in water; for Cocrystal formation, Comparative Example 4*: slurry summary: A if a cocrystal was formed in any one of Comparative Examples 4-1 to 4-6; for Cocrystal formation, Comparative Example 4-5: slurry in ethyl acetate; for Cocrystal formation, Comparative Example 4-3: slurry in tetrahydrofuran
Description: as §1, with “(0.0127” for “(0.0167”, “carbamazepine” for “theophylline”, “4” for “1”, “4” for “I”, “These were” for “This was”

[5] = Cocrystal screening by co-grinding method (Comparative Example 2); parameters: key: A cocrystal was completely formed.; B: A mixture of a cocrystal and the host compound or guest compound was formed.; C: A cocrystal was not formed (a mixture of the host compound and the guest compound was formed); details: host theophylline, equimolar guest, mixed/ground in agate mortar
Description: as §2, with “3 mg (0.0167 mmoles) of theophylline” for “Carbamazepine”, “1” for “4”, “amount (0.0167 mmoles)” for “amount”, “theophylline” for “carbamazepine”

Structure (SMILES)	Cocrystal formation, Comparative Example 1-6 [1]	Cocrystal formation, Comparative Example 1-2 [1]	Cocrystal formation, Comparative Example 1-5 [1]	Cocrystal formation, Comparative Example 1-3 [1]	Cocrystal formation, Comparative Example 1-4 [1]	Cocrystal formation, Comparative Example 1-1 ([1]; slurry in water)	Cocrystal formation, Comparative Example 1* [1]	Cocrystal formation, Example 1 [2]	Cocrystal formation, Comparative Example 5 [3]	Cocrystal formation, Comparative Example 4-6 [4]	Cocrystal formation, Comparative Example 4-2 [4]	Cocrystal formation, Comparative Example 4-4 [4]	Cocrystal formation, Comparative Example 4-1 [4]	Cocrystal formation, Comparative Example 4* [4]	Cocrystal formation, Comparative Example 2 [5]	Cocrystal formation, Comparative Example 4-5 [4]	Cocrystal formation, Comparative Example 4-3 [4]	Cocrystal with theophylline found, Comparative Example 1-1 ([1]; slurry in water)	Cocrystal with theophylline found, Example 1 ([2]; 1-menthol, 80° C.)
O=C(O)CC(O)(CC(=O)O)C(=O)O [Citric acid]	C	C	A	C	C	C	A	A	C	C	C	C	C	C	C				
O=C(O)/C=C\C(=O)O [Maleic acid]	C	C	A	C	A	C	A	A	C	C	A	A	A	A	C	A	A		
O=C1NS(=O)(=O)c2ccccc21 [Saccharin]	C	A	A	C	C	C	A	A	C	B	A	A	C	A	C	A			
O=C(O)C(=O)O [Oxalic acid]	A	C	A	A	C	C	A	B	C	C	C	B	C	A	B	A			
NC(=O)c1cccnc1 [Nicotinamide]	A	B	A	B	A	C	A	A	C	B	A	A	C	A	C	A	A		
N=C(N)NCCC[C@H](N)C(=O)O [L(+)-Arginine]	C	C	C	C	C	A	A	C	C	C	C	C	C	C	C	C		could be found out	could not be found out
